# Measured values reported in ChEMBL document CHEMBL1127828, “The discovery of an unusually selective and novel cocaine analog: difluoropine. Synthesis and inhibition of binding at cocaine recognition sites” (J Med Chem, 1994).
# Target: Sodium-dependent serotonin transporter (Homo sapiens, UniProt P31645)
# Experiment: Binding affinity of [3H]citalopram for serotonin transporter in monkey
# Set-up: species or system Cercopithecidae
# Chain of Sodium-dependent serotonin transporter (P31645 whole entry): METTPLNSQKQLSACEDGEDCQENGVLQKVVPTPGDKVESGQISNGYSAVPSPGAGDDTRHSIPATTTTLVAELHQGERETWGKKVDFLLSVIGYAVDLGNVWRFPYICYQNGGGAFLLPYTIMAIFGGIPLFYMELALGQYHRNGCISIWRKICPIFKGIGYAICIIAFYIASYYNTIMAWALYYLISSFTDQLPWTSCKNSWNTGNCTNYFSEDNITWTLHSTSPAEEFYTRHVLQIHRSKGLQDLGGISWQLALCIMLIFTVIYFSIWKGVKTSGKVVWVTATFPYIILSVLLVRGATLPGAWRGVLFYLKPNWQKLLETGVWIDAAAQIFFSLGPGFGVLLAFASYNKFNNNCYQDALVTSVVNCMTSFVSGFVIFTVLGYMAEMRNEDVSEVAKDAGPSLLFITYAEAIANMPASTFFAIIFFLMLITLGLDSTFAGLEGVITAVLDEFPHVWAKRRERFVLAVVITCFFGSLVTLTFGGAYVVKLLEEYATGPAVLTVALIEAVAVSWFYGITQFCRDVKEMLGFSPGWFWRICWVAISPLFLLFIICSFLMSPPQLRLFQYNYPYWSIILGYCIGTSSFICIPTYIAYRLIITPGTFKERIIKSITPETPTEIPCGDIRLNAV
row,SMILES,IC50
1,COC(=O)C1C2CC[C@H](C[C@@H]1c1ccc(I)cc1)N2C (some centres undefined),0.00253 µM
2,COC(=O)[C@@H]1C2CCC(C[C@@H]1OC(c1ccc(F)cc1)c1ccc(F)cc1)N2C (some centres undefined),3.53 µM
3,COC(=O)[C@@H]1[C@H]2CCC(C[C@H]1OC(c1ccc(F)cc1)c1ccc(F)cc1)N2C,1.83 µM
4,COC(=O)C1C2CC[C@H](C[C@@H]1OC(c1ccc(F)cc1)c1ccc(F)cc1)N2C (stereo in doubt; R-7),5.5 µM
5,COC(=O)C1C2CC[C@H](C[C@H]1OC(c1ccc(F)cc1)c1ccc(F)cc1)N2C (stereo in doubt; R-8),1.98 µM
6,COC(=O)C1C2CC[C@H](C[C@@H]1OC(c1ccc(F)cc1)c1ccc(F)cc1)N2C (stereo in doubt; R-9),1.46 µM
7,COC(=O)C1C2CC[C@H](C[C@H]1OC(c1ccc(F)cc1)c1ccc(F)cc1)N2C (stereo in doubt; R-10),9.15 µM
8,COC(=O)C1C2CC[C@H](C[C@H]1OC(c1ccc(F)cc1)c1ccc(F)cc1)N2C (stereo in doubt; S-7),4.09 µM
9,COC(=O)C1C2CC[C@H](C[C@H]1OC(c1ccc(F)cc1)c1ccc(F)cc1)N2C (stereo in doubt; S-10),4.93 µM
